Experimental data: patent publication US20250026748A1, “N-(5-SUBSTITUTED-[(1,3,4-THIADIAZOLYL) OR (THIAZOLYL)])(SUBSTITUTED)CARBOXAMIDE COMPOUNDS AND USE THEREOF FOR INHIBITING HUMAN POLYMERASE THETA” (Repare Therapeutics Inc., priority 2021, published 2025)

Target: PolQ ATPase enzyme (1-894) (Homo sapiens (Human), UniProt O75417)
Assay: Polθ ATPase enzymatic assay (0.5 nM enzyme concentration), ADP-Glo
Type: biochemical
Conditions: average IC50; 0.5 nM PolQ ATPase enzyme (1-894)
Outline: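 Enzyme (0.5 nM) pre-incubated 15 min at rt with 10-point inhibitor series in 50 mM Tris pH 7.5, 10% glycerol, 5 mM DTT, 10 mM MgCl2, 0.1 mg/ml BSA; reaction started with 20 nM fork DNA and 100 μM ATP, run 180 min at rt. ADP-Glo luminescence; IC50 from 4-parameter variable-slope fit.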

PolQ ATPase enzyme (1-894), sequence (O75417 1-894): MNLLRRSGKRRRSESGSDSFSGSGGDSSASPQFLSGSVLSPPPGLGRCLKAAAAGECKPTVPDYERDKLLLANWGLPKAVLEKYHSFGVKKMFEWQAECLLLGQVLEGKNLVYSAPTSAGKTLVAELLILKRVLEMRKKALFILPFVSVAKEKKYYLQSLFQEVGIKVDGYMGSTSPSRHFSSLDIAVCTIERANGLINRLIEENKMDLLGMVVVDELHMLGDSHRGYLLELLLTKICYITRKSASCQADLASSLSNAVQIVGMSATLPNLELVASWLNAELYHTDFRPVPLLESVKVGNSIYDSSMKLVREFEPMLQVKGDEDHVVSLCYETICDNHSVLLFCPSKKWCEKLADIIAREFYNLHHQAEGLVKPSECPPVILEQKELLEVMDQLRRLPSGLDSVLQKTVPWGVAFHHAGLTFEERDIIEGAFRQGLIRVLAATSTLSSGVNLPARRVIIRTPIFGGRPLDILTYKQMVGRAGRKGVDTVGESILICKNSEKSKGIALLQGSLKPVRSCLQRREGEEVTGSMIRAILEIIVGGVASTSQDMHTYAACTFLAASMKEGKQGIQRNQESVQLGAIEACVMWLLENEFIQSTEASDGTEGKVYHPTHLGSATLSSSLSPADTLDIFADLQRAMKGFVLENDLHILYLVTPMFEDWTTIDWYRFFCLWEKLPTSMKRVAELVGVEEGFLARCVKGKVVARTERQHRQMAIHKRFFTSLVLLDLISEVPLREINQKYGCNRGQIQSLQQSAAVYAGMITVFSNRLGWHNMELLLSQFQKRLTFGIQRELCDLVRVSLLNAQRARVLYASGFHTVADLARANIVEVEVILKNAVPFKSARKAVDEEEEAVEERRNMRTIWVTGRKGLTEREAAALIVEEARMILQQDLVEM

SMILES	IC50 [nM]
COc1cnc(C(F)F)cc1-c1cc(Cc2nnc(C)o2)ncc1C(=O)Nc1ncc(C#CC2CC2)s1 [Compound 401]	< 0.25
COc1ccc(C(F)(F)F)cc1-c1cnccc1C(=O)Nc1nnc(C#Cc2cc(C)[nH]n2)s1 [Compound 27, 3-[2-methoxy-5-(trifluoromethyl)phenyl]-N-[5-[2-(5-methyl-1H-pyrazol-3-yl)ethynyl]-1,3,4-thiadiazol-2-yl]pyridine-4-carboxamide]	0.26
COc1cnc(Cl)cc1-c1cc(CS(C)(=O)=O)ccc1C(=O)Nc1nnc(C#CC2CC2)s1 [Compound 310]	4.4
COc1cnc(C(F)F)cc1-c1cc(-c2nnc(C)o2)ccc1C(=O)Nc1nc(C)c(C#CC2CC2)s1 [Compound 164]	289
COc1cnc(C(F)F)cc1-c1cc(N(C)C(C)=O)ccc1C(=O)Nc1nnc(C#CC2CC2)s1 [Compound 276]	< 0.25
[2H]C([2H])([2H])Oc1cnc(C(F)F)cc1-c1cc(-c2ccn(C)n2)ncc1C(=O)Nc1nnc(C#CC2CC2)s1 [Compound 375]	< 0.25
COc1cnc(C(F)F)cc1-c1cc(CC#N)ccc1C(=O)Nc1nnc(C#CC2CC2)s1 [Compound 112, 4-(cyanomethyl)-N-(5-(cyclopropylethynyl)-1,3,4-thiadiazol-2-yl)-2-(2-(difluoromethyl)-5-methoxypyridin-4-yl)benzamide]	< 0.25
COc1ccc(C(F)F)cc1-c1cn(CC(N)=O)c(=O)cc1C(=O)Nc1nnc(C#CC2CC2)s1 [Compound 87]	0.36
COc1cnc(C(F)F)cc1-c1cn2ncnc2cc1C(=O)Nc1nnc(C#CC2CC2)s1 [Compound 36, N-(5-(cyclopropylethynyl)-1,3,4-thiadiazol-2-yl)-6-(2-(difluoromethyl)-5-methoxypyridin-4-yl)-[1,2,4]triazolo[1,5-a]pyridine-7-carboxamide]	6.6
COc1cnc(Cl)cc1-c1cc(N2CCN(C)C2=O)ccc1C(=O)Nc1nnc(C#CC2CC2)s1 [Compound 295]	2.7
COc1cnc(C(F)F)cc1-c1cc(CN2CCOCC2=O)ccc1C(=O)Nc1nnc(C#CC2CC2)s1 [Compound 227]	6.9
COc1ccc(C(F)(F)F)cc1-c1cc(-c2ccn(C)n2)ncc1C(=O)Nc1nnc(C#CC2CC2)s1 [Compound 309]	0.99
COc1cnc(C(F)F)cc1-c1cc(-n2ccc(C)cc2=O)ncc1C(=O)Nc1nnc(C#CC2CC2)s1 [Compound 387, N-(5-(cyclopropylethynyl)-1,3,4-thiadiazol-2-yl)-2″-(difluoromethyl)-5″-methoxy-4-methyl-2-oxo-2H-[1,2′:4′,4″-terpyridine]-5′-carboxamide]	< 0.25
COc1ccc(C(F)F)cc1-c1cn2ncnc2cc1C(=O)Nc1nnc(C#CC2CC2)s1 [Compound 328]	3.1
COc1cnc(C(F)F)cc1-c1cc(-c2cnn(C3CCNCC3)c2)ncc1C(=O)Nc1nnc(C#CC2CC2)s1 [Compound 398]	2.1
COc1cnc(C(F)F)cc1-c1cc(-c2cnn(CCO)c2)ccc1C(=O)Nc1nnc(C#CC2CC2)s1 [Compound 134]	< 0.25
COc1cnc(C(F)F)cc1-c1cc(-c2nnc(C)o2)ccc1C(=O)Nc1nnc(C#CC2CC2)s1 [Compound 111, N-(5-(cyclopropylethynyl)-1,3,4-thiadiazol-2-yl)-2-(2-(difluoromethyl)-5-methoxypyridin-4-yl)-4-(5-methyl-1,3,4-oxadiazol-2-yl)benzamide]	0.78
COc1cnc(C(F)F)cc1-c1cc(-c2ccn(C)n2)ncc1C(=O)Nc1nc(C)c(C#CC2CC2)s1 [Compound 157]	115
COc1cnc(C(F)F)cc1-c1cc(-c2nnc(C)o2)ncc1C(=O)Nc1nnc(C#CC2CC2)s1 [Compound 354]	0.27
COc1cnc(C(F)F)cc1-c1cc(C2C[C@@H]2C(=O)N(C)C)ccc1C(=O)Nc1nnc(C#CC2CC2)s1 (stereo partly drawn) [Compound 362]	1.4

SMILES	IC50 [nM]
Cc1cc(C#Cc2nnc(NC(=O)c3cc(=O)n(C)cc3-c3cc(Cl)ncc3OC(F)F)s2)n[nH]1 [Compound 98]	0.54
COc1ccc(C(F)(F)F)cc1-c1cn(C2COC2)c(=O)cc1C(=O)Nc1nnc(C#Cc2cc(C)[nH]n2)s1 [Compound 78]	2.71
COc1cnc(C(F)F)cc1-c1cc(N2CCOCC2=O)ccc1C(=O)Nc1ncc(C#CC2CC2)s1 [Compound 213]	< 0.25
COc1cnc(C(F)F)cc1-c1cc(N(C)C(=O)C2CC2)ccc1C(=O)Nc1nnc(C#CC2CC2)s1 [Compound 222]	< 0.25
COc1cnc(C(F)F)cc1-c1cc(-c2nccn2C)ncc1C(=O)Nc1nnc(C#CC2CC2)s1 [Compound 404]	< 0.25
COc1ccc(C(F)(F)F)cc1-c1cc(CC(=O)N(C)C)ncc1C(=O)Nc1nnc(C#CC2CC2)s1 [Compound 33, N-(5-(cyclopropylethynyl)-1,3,4-thiadiazol-2-yl)-6-(2-(dimethylamino)-2-oxoethyl)-4-(2-methoxy-5-(trifluoromethyl)phenyl)nicotinamide]	< 0.25
COc1ccn(-c2cc(-c3cc(C(F)F)ncc3OC)c(C(=O)Nc3nnc(C#CC4CC4)s3)cn2)c(=O)c1 [Compound 434]	< 0.25
COc1cnc(Cl)cc1-c1cn(Cc2csc(C)n2)c(=O)cc1C(=O)Nc1nnc(C#CC2CC2)s1 [Compound 332]	15
COc1cnc(C(F)F)cc1-c1cc(-c2nnc(C)o2)ccc1C(=O)Nc1nc(C#N)c(C#CC2CC2)s1 [Compound 376]	3
COc1cnc(C)cc1-c1cnccc1C(=O)Nc1nnc(C#Cc2cc(C)[nH]n2)s1 [Compound 85]	1.1
COc1cnc(C(F)F)cc1-c1cc(N2CCCC(C)C2=O)ncc1C(=O)Nc1nnc(C#CC2CC2)s1 (stereo not drawn) [Compound 390]	< 0.25
COc1cnc(C(F)F)cc1-c1cc(N2CCN(C)CC2=O)ncc1C(=O)Nc1nnc(C#CC2CC2)s1 [Compound 194]	0.61
COc1cnc(C(F)F)cc1-c1cc(-c2nn(C)cc2C)ncc1C(=O)Nc1nnc(C#CC2CC2)s1 [Compound 351]	< 0.25
COc1cnc(Cl)cc1-c1cnccc1C(=O)Nc1nnc([C@@H]2C[C@H]2c2ccc(C#N)c(C)c2)s1 [Compound 287]	0.93
COc1cnc(C(F)F)cc1-c1cc(N2CC(=O)N(C)C3(CC3)C2=O)ncc1C(=O)Nc1nnc(C#CC2CC2)s1 [Compound 469]	< 0.25
COc1cnc(C(F)F)cc1-c1cnccc1C(=O)Nc1nnc([C@@H]2C[C@H]2c2ccc(C#N)cc2)s1 [Compound 274]	0.51
COc1cnc(Cl)cc1-c1cc(N2CCCC2=O)ccc1C(=O)Nc1nnc(C#CC2CC2)s1 [Compound 39]	0.27
COc1ccc(C(F)F)cc1-c1cn2cc(C(=O)N(C)C)nc2cc1C(=O)Nc1nnc(C#CC2CC2)s1 [Compound 324]	0.4
COc1cnc(C(F)F)cc1-c1cc(-c2nnc(C)s2)ccc1C(=O)Nc1nnc(C#CC2CC2)s1 [Compound 138]	< 0.25
COc1cnc(C(F)F)cc1-c1cc(C#CC2(O)CCOCC2)ncc1C(=O)Nc1nnc(C#CC2CC2)s1 [Compound 255]	0.26

SMILES	IC50 [nM]
COc1cnc(C(F)F)cc1-c1cc(CC(=O)N2CC(F)(F)C2)ncc1C(=O)Nc1ncc(C#CC2CC2)s1 [Compound 447]	< 0.25
COc1cnc(C(F)F)cc1-c1cc(-c2ccnn2C)ncc1C(=O)Nc1nnc(C#CC2CC2)s1 [Compound 127]	< 0.25
COc1cnc(C(F)F)cc1-c1cc(N2CC3(CCOCC3)CC2=O)ncc1C(=O)Nc1nnc(C#CC2CC2)s1 [Compound 360]	7.2
COc1cnc(C(F)F)cc1-c1cc(C#CC(C)(C)O)ncc1C(=O)Nc1nnc(C#CC2CC2)s1 [Compound 253]	< 0.25
COc1ccc(C(F)(F)F)cc1-c1cn(C)c(=O)cc1C(=O)Nc1nnc(C#CC2COC2)s1 [Compound 343]	8.4
COc1cnc(C(F)F)cc1-c1cc(C#CC2(O)CCOCC2)ccc1C(=O)Nc1nnc(C#CC2CC2)s1 [Compound 283]	< 0.25
COc1cnc(Cl)cc1-c1cc(C(N)=O)ncc1C(=O)Nc1nnc(C#CC2CC2)s1 [Compound 73]	0.42
COc1cnc(C(F)F)cc1-c1cc(-c2ccn(C)n2)ccc1C(=O)Nc1nnc(C#CC2CC2)s1 [Compound 280]	< 0.25
COc1cnc(C(F)F)cc1-c1cc(-n2cccc(C(F)(F)F)c2=O)ncc1C(=O)Nc1nnc(C#CC2CC2)s1 [Compound 456]	< 0.25
COc1cnc(C(F)F)cc1-c1cc(-n2ccccc2=O)ncc1C(=O)Nc1nnc(C#CC2CC2)s1 [Compound 122, N-(5-(cyclopropylethynyl)-1,3,4-thiadiazol-2-yl)-2″-(difluoromethyl)-5″-methoxy-2-oxo-2H-[1,2′:4′,4″-terpyridine]-5′-carboxamide]	< 0.25
COc1cnc(C(F)F)cc1-c1cc(-n2cncn2)ncc1C(=O)Nc1nnc(C#CC2CC2)s1 [Compound 263]	< 0.25
C#C[C@@H]1CC1c1nnc(NC(=O)c2ccncc2-c2cc(C(F)F)ncc2OC)s1 (stereo partly drawn) [Compound 323]	4.5
COc1cnc(C(F)F)cc1-c1cc(CC#N)ncc1C(=O)Nc1nnc(C#Cc2ccc(Cl)cc2)s1 [Compound 178]	< 0.25
COc1cnc(C(F)F)cc1-c1cc(-c2nnc(C)o2)ccc1C(=O)Nc1ncc(C#CC2CC2)s1 [Compound 120]	2.5
COc1cnc(C(F)F)cc1-c1cc(NC(C)=O)ccc1C(=O)Nc1nnc(C#CC2CC2)s1 [Compound 225]	0.56
COc1cnc(C(F)F)cc1-c1cc(N2CCCC(F)C2=O)ncc1C(=O)Nc1nnc(C#CC2CC2)s1 (stereo not drawn) [Compound 352]	< 0.25
COC(=O)N1CCN(c2ccc(C(=O)Nc3nnc(C#CC4CC4)s3)c(-c3cc(C(F)F)ncc3OC)c2)C(=O)C1 [Compound 123]	< 0.25
COc1cnc(C(F)F)cc1-c1cc(-c2ccn(C)n2)c(F)cc1C(=O)Nc1nnc(C#CC2CC2)s1 [Compound 457]	0.37
COc1cnc(C(F)F)cc1-c1cc(-n2cc(N)c(C)cc2=O)ncc1C(=O)Nc1nnc(C#CC2CC2)s1 [Compound 454]	1.1
NC(=O)Cn1cc(-c2cc(Cl)ncc2OC(F)F)c(C(=O)Nc2nnc(C#CC3CC3)s2)cc1=O [Compound 76]	< 0.25
